In data set [1] the test system is KB cells. To be noted: KB cells in vitro; Lin et al., 1991, 1992; cited from earlier work.
The subject of data set [2] is human hepatoma PLC/PRF/5 cells. The settings on record: human hepatoma PLC/PRF/5 cells in vitro; Lin et al., 1991, 1992; cited from earlier work.
The subject of a further data set is leukemia cells. The settings on record: Habib et al., 1987; cited from earlier work.
In data set [3] the test system is KB cells. The experiment in a line: microassay for anticellular effect (cytotoxicity, ED50), KB cells. The settings on record: for IC50: Homo sapiens, 96 h; for inhibitory activity in words (KB): KB cells in vitro. It counts as cell-based, human. The procedure:
(§1) The name PLC/PRF/5 designates human primary liver cancer cells; the symbol KB designates epidermoid carcinoma cells.
(§2) PLC/PRF/5 cells were isolated from human hepatoma and are known to produce HBs Ag continuously in culture fluids. The cells were grown as continuous cultures in a growth medium consisting of Dulbecco's modified Eagle medium (DMEM, GIBCO, Grand Island, N.Y.), 10% fetal bovin serum (FBS, GIBCO), 100 IU/ml penicillin, 100 µg/ml streptomycin and 2 mM L-glutamine. The KB cells were maintained on DMEM containing 10% FBS L-glutamine and antibiotics. For the microassay, the growth medium was supplemented further with 10 mM Hepes buffer, pH 7.3.
(§3) The ED50 values were calculated from a semilog plot of the drug concentration vs. the percentage of viable cells on day 4.

In data set [4] the test system is human hepatoma PLC/PRF/5 cells. In words: microassay for anticellular effect (cytotoxicity, ED50), PLC/PRF/5 cells. Type of data set: cell-based. The settings on record: for IC50: Homo sapiens; for IC50 / ED50 (PLC/PRF/5): PLC/PRF/5 cells, % viable cells on day 4, n = 8, significant activity requires ED50 < 4.0 ug/ml; for inhibitory activity in words (PLC/PRF/5): human hepatoma PLC/PRF/5 cells in vitro. As to the method:
as §1, §2, §3

Another data set has as its system human PLC/PRF/5 cells. The experiment in a line: Inhibition of Macromolecular Synthesis ([3H]-thymidine, -uridine or -methionine incorporation), PLC/PRF/5 cells. It counts as cell-based. To be noted: for dependence of inhibition of macromolecular biosynthesis on concentration and time (PLC/PRF/5): PLC/PRF/5 cells; for effects on DNA, RNA and protein synthesis (PLC/PRF/5): human PLC/PRF/5 cells, FIGS. 1, 3, 5; for suppression of cellular DNA, RNA and protein synthesis: overall conclusion, cell line not stated. The procedure:
(§4) The activity of compounds 16, 17 and 21 on macromolecular synthesis were determined by measuring the isotopic incorporation of [^3 H]-thymidine, -uridine and -methionine in the human PLC/PRF/5 and KB cells respectively.
(§5) PLC/PRF/5 cells were obtained from human hepatoma and are known to produce HBs Ag continuously in culture fluids. Human hepatoma PLC/PRF/5 and epidermis carcinoma KB cells were maintained in Dulbeceo's modified Eagle medium (DMEM, Gibco BRL Grand Island, N.Y., U.S.A.), containing 10% fetal bovine serum (FBS, Gibco BRL), 2 mM L-glutamine, 100 units mL-1 penicillin, 100 μg mL-l streptomycin. The 212 cells were maintained in Minimum essential alpha medium (MEM, Gibco BRL), containing 10% calf serum (Gibco BRL). For microassay, the growth medium was supplemented with 10 mM HEPES buffer, pH 7.3 and incubated at 37° C. in a CO2 incubation.
(§6) Inhibition of Macromolecular Synthesis. The synthesis of macromolecules were measured by the incorporation of ^3 H-thymidine, -uridine or -methionine (New England) Nuclear, Boston, Mass., USA) into the tumor cells. Briefly, the tumor cell (1 1.5×10^4 /100 μl/well) maintained in growth medium with or without drugs in microplates were incubated at 37° C. The cells after pulsed labeling with [^3 H]-thymidine, -uridine, or -methionine for 18 hrs at day 4 post-treatment were harvested and loaded onto glass filter paper (Skatron. Va., USA). The incorporation activities of the cells were measured by the liquid scintillation counter (LS-5000 TA, Beckman Calif., USA). All treatments were conducted in quadruplicate and the mean values were used for analysis. Each experiment was repeated at least 3 times. The data shown are mean counts per minute (CPM)±SEM. Percent inhibition of [^3 H]-thymidine, -uridine, or -methionine incorporation was calculated as follows: [formula]

Data set [5] deals with epidermis carcinoma KB cells. In words: Inhibition of Macromolecular Synthesis ([3H]-thymidine, -uridine or -methionine incorporation), KB cells. Type of data set: cell-based, human. The settings on record: for effects on DNA, RNA and protein synthesis (KB): FIGS. 2, 4, 6. The procedure:
as §4, §5, §6

[6] abbreviates: KB cells, % viable cells on day 4, n = 8, significant activity requires ED50 < 4.0 ug/ml.

Converted amounts (≈) assume the structure as drawn.

On to `COc1cc2c(cc1O)-c1oc3c4c(cc(O)c3c(=O)c1C(C=C(C)C)O2)OC(C)(C)C=C4` (stereo not shown) [cycloartomunin], for which, in the data set on KB cells [1], the “cytotoxic effects (KB), isolated natural compounds” value (from here on “cytotoxic effects (KB)”) is on record as “exhibited cytotoxic effects”. For the same compound, the “cytotoxic effects (PLC/PRF/5), isolated natural compounds” value in data set [2] is “exhibited cytotoxic effects”.

On to dihydrocyclo-artomunin, for which, in the data set with KB cells [1], the “cytotoxic effects (KB)” value is recorded as “exhibited cytotoxic effects”. The “cytotoxic effects (PLC/PRF/5), isolated natural compounds” value in data set [2] is on record as “exhibited cytotoxic effects”.

For 3',4'-deoxy-psorospermin, the “cytotoxic effects against leukemia cells” value with leukemia cells is recorded as “strong cytotoxic effects”.

On to dihydroisocycloartomunin, for which the “cytotoxic effects (KB)” value in the data set with KB cells [1] is recorded as “exhibited cytotoxic effects”. Also, in data set [2], the “cytotoxic effects (PLC/PRF/5), isolated natural compounds” value was “exhibited cytotoxic effects”.

artomunoxanth-otrione epoxide: the “cytotoxic effects (KB)” value with KB cells [1] is given as “exhibited cytotoxic effects”. In addition, the “cytotoxic effects (PLC/PRF/5), isolated natural compounds” value in data set [2] is given as “exhibited cytotoxic effects”.

Take `CC(C)=CC1Oc2cc(O)ccc2-c2oc3c4c(cc(O)c3c(=O)c21)OC(C)(C)C=C4` (stereo not shown) [cyclomorusin]: the “cytotoxic effects (KB)” value with KB cells [1] is recorded as “exhibited cytotoxic effects”. In addition, in data set [2], the “cytotoxic effects (PLC/PRF/5), isolated natural compounds” value is listed as “exhibited cytotoxic effects”.

For “O^5 -methyl-3',4'-deoxypsorospermin-3'-ol”, the “cytotoxic effects against leukemia cells” value with leukemia cells is on record as “strong cytotoxic effects”.

Consider `O=c1c2ccc(OCC3CO3)cc2oc2ccc(OCC3CO3)cc12` (stereo not shown) [Compound 16, 2,6-di(2,3-epoxypropoxy) xanthone], for which half-maximal inhibition in the data set on KB cells [3] (setting [6]) (IC50) was put at 0.0043 µg/mL (≈ 0.0126 µM). For the same compound, the “inhibitory activity in words (KB)” value with KB cells [3] is given as “more potent inhibitory activity”. For the same compound, the “ED50 potency relative to cisplatin (KB)” value in the data set with KB cells [3] (KB cells, versus cisplatin) is “over 40 times”. Further, the IC50 (usually the midpoint of a concentration-inhibition curve) in data set [4] (96 h) was found to be 0.23 µg/mL (≈ 0.676 µM). In addition, in the data set on human PLC/PRF/5 cells, the “dependence of inhibition of macromolecular biosynthesis on concentration and time (PLC/PRF/5)” value (“dependence of inhibition … (PLC/PRF/5)” for short) is “correlated with the concentration and the period of drug treatment”; the “effects on DNA, RNA and protein synthesis (PLC/PRF/5)” value (“effects on DNA … (PLC/PRF/5)” for short) is given as “effects are significant at low concentration”; the “suppression of cellular DNA, RNA and protein synthesis” value (shortened to “suppression of cellular DNA”) was “suppress cellular DNA, RNA and protein synthesis”. Moreover, in data set [5], the “dependence of inhibition of macromolecular biosynthesis on concentration and time (KB)” value (shortened to “dependence of inhibition … (KB)”) is reported as “only correlated with the concentration of drug treatment”; the “effects on DNA, RNA and protein synthesis (KB)” value (shortened to “effects on DNA … (KB)”) is given as “not apparent”.

On to 3',4'=deoxypsorospermin-3',4'-diol, for which the “cytotoxic effects against leukemia cells” value with leukemia cells is “strong cytotoxic effects”.

Turning to `O=c1c2ccccc2oc2cc(O)ccc12` [Compound 13, 3-hydroxyxanthone], the IC50 in the data set with KB cells [3] (setting [6]) stood at 0.77 µg/mL (≈ 3.63 µM); in data set [4] (PLC-PRF-5, 96 h), 3.73 µg/mL (≈ 17.6 µM). Moreover, the “inhibitory activity in words (KB)” value in the data set with KB cells [3] is “significant and potent inhibitory activity”. In addition, the “ED50 (PLC/PRF/5)” value in data set [4] (5760 min) was determined as 3.75 µg/mL (≈ 17.7 µM). Besides, the “inhibitory activity in words (PLC/PRF/5)” value in data set [4] is “significant and potent inhibitory activity”.

Turning to `CC(C)=CC1Oc2cc(O)ccc2-c2oc3cc(O)c(/C=C/C(C)C)c(O)c3c(=O)c21` (stereo not shown) [cyclocommunin], in the data set on KB cells [1], the “cytotoxic effects (KB)” value is given as “exhibited cytotoxic effects”. In addition, in data set [2], the “cytotoxic effects (PLC/PRF/5), isolated natural compounds” value is “exhibited cytotoxic effects”.

Regarding cyclo-mulberrin, the “cytotoxic effects (KB)” value in the data set with KB cells [1] is listed as “exhibited cytotoxic effects”. Besides, in data set [2], the “cytotoxic effects (PLC/PRF/5), isolated natural compounds” value is listed as “exhibited cytotoxic effects”.

`O=c1c2ccccc2oc2cc(OCC3CO3)ccc12` (stereo not shown) [Compound 14, 3-(2,3-Epoxypropoxy)xanthone]: the IC50 in the data set on KB cells [3] (setting [6]) was found to be 0.85 µg/mL (≈ 3.17 µM); in data set [4] (96 h) it was 1.43 µg/mL (≈ 5.33 µM). Moreover, the “inhibitory activity in words (PLC/PRF/5)” value in data set [4] is given as “enhanced very markedly the inhibitory effects”.

For `N.N.[Cl][Pt][Cl]` [Cisplatin, reference compound], the “ED50 (KB)” value in the data set with KB cells [3] (setting [6]) is 0.16 µg/mL. For the same compound, the “ED50 (PLC/PRF/5)” value in data set [4] worked out at 5.29 µg/mL.

Take `C=C(C)C1Cc2c(oc3c4c(cc(O)c3c2=O)OC(C)(C)C=C4)-c2c(O)cc(OC)c(O)c21` (stereo not shown) [artomunoxanthone]: in the data set with KB cells [1], the “cytotoxic effects (KB)” value is “exhibited cytotoxic effects”. Moreover, in data set [2], the “cytotoxic effects (PLC/PRF/5), isolated natural compounds” value is on record as “exhibited cytotoxic effects”.

In turn, `O=c1c2cccc(OCC3CO3)c2oc2cc(OCC3CO3)cc(O)c12` (stereo not shown) [Compound 21, 3,5-di(2,3-epoxypropoxy)-1-hydroxyxanthone] showed an IC50 in the data set with KB cells [3] (setting [6]) of 0.089 µg/mL (≈ 0.25 µM). For the same compound, the “inhibitory activity in words (KB)” value in the data set on KB cells [3] is on record as “significant novel inhibitory activity”. This compound also displayed a concentration for half-maximal inhibition (IC50) in data set [4] (96 h) of 0.061 µg/mL (≈ 0.171 µM). The “inhibitory activity in words (PLC/PRF/5)” value in data set [4] was “significant novel inhibitory activity”. Further, in the data set with human PLC/PRF/5 cells, the “dependence of inhibition … (PLC/PRF/5)” value was “correlated with the concentration and the period of drug treatment”; the “effects on DNA … (PLC/PRF/5)” value is reported as “effects are significant at low concentration”; the “suppression of cellular DNA” value was “suppress cellular DNA, RNA and protein synthesis”. Further, in data set [5], the “dependence of inhibition … (KB)” value is listed as “only correlated with the concentration of drug treatment”; the “effects on DNA … (KB)” value is “not apparent”.

In the case of 3',4'-deoxy-4'-chloropsorspermin-3'-ol, the “cytotoxic effects against leukemia cells” value with leukemia cells was “strong cytotoxic effects”.

Regarding `CC(C)=CC1Oc2cc(O)ccc2-c2oc3cc(O)cc(O)c3c(=O)c21` (stereo not shown) [cyclocommunol], the “cytotoxic effects (KB)” value in the data set on KB cells [1] is “exhibited cytotoxic effects”. The “cytotoxic effects (PLC/PRF/5), isolated natural compounds” value in data set [2] is reported as “exhibited cytotoxic effects”.

Turning to `COc1cc2c(c3oc4c(O)cccc4c(=O)c13)C[C@H]([C@@]1(C)CO1)O2` [Psorospermin], the “cytotoxic effects against leukemia cells” value with leukemia cells is “strong cytotoxic effects”.

In the data set on KB cells [3] (setting [6]), `O=c1c2ccc(OCC3CO3)cc2oc2cc(OCC3CO3)ccc12` (stereo not shown) [Compound 17, 3,6-di(2,3-epoxypropxy)xanthone] returned an IC50 of 0.11 µg/mL (≈ 0.323 µM). For the same compound, in data set [4] (96 h), the IC50 came to 0.24 µg/mL (≈ 0.705 µM). Besides, in the data set with human PLC/PRF/5 cells, the “dependence of inhibition … (PLC/PRF/5)” value was “correlated with the concentration and the period of drug treatment”; the “effects on DNA … (PLC/PRF/5)” value is given as “effects are significant at low concentration”; the “suppression of cellular DNA” value is “suppress cellular DNA, RNA and protein synthesis”. Besides, in data set [5], the “dependence of inhibition … (KB)” value is “only correlated with the concentration of drug treatment”; the “effects on DNA … (KB)” value was “not apparent”.
